Assay results reported in patent US20130172308A1, “ANTIMICROBIAL AGENTS” (John Grant COLLINS, priority 2011, published 2013).

How the values were obtained:
[1] = assay type: physicochemical; details: pH 7.4
Experimental: The primary difference between the members of the Rubbn family of complexes is the number of methylene groups in the flexible linking chain. […] Lipophilicity is a significant factor affecting the biological activity of most therapeutic compounds, as it relates to the capacity of the drug to penetrate through the cell membrane. The standard octanol-water partition coefficient (logP) was determined for the Rubbn series (F. Lombardo, B. Faller, M. Shalaeva, I. Tetko and S. Tilton, Methods and Principles in Medicinal Chemistry, 2008, 37, 407) parent model mononuclear species ([Ru(phen)2(Me2bpy)]^2+) and the trinuclear and tetranuclear complexes.
The partition coefficients (logP) were measured using the shake flask technique: each ruthenium complex (at both 0.05 and 0.1 mM) was dissolved in the water phase (0.2 M Na2HPO4—NaH2PO4 buffer, pH=7.4) and an equivalent volume of n-octanol was added.
The two phases were mutually saturated by shaking overnight at ambient temperature and then were allowed to separate on standing. The concentration of the metal complex in each phase was determined spectrophotometrically at l=450 nm.

[2] = system: Plasmodium falciparum strain W2; assay: [3H]-hypoxanthine growth inhibition assay; assay type: cell-based; details: mean (SD), 96 h exposure, chloroquine-resistant strain; for IC50: read-out: IC50 W2; for IC90: read-out: IC90 W2
Experimental: (§1) The in vitro antimalarial activities of two of the dinuclear ruthenium(II) complexes and chloroquine were assessed by exposing P. falciparum strains to ten serially diluted two-fold concentrations of each compound. Parasite growth was measured by uptake of tritiated [^3H]-hypoxanthine into newly synthesised parasitic DNA.
(§2) The [^3H]-hypoxanthine growth inhibition assay (Desjardins et al., 1979 Antimicrobial Agents Chemother 16: 710-718) was used to evaluate the in vitro antimalarial activity of the compounds. Briefly, synchronised parasite cultures (>90% rings, 6 to 8 h post invasion) in [^3H]-RPMI-LPLF complete medium with 0.5% parasitaemia and 2% haematocrit were exposed to the compounds at ten two-fold concentrations, ranging from 10,000 to 20 nM in 96-well microtitre plates. Chloroquine was used as a reference drug. Uninfected RBCs at 2% haematocrit were used as background controls. For the 96 h exposure period, the plates were incubated in the gas mixture at 37° C. for approximately 48 h, followed by the addition of 0.2 μCi of ^3H-hypoxanthine (GE Healthcare, Amersham) in [^3H]-RPMI-1640-LPLF to each well and a further 48 h of incubation and then frozen at −20° C. Plates were thawed and harvested using Tomtech Harvester 96 Mach III and radioactive counts were obtained using Wallac TriLux 1450 Microbeta Liquid Scintillation Counter (Perkin Elmer, USA). All assays were performed in triplicate for each strain and at least on two separate occasions.
(§3) Tritiated hypoxanthine uptake data were analysed in Graphpad Prism V5.0 software (GraphPad Software Inc. USA). The concentrations of the dinuclear ruthenium(II) complexes and chloroquine were transformed into logarithmic values. After subtracting the background values, the data from drug-treated wells were normalised against drug-free control wells. Non-linear regression analysis was carried out of the compound's concentration versus parasitic hypoxanthine incorporation. The in vitro antimalarial activity of the compound is defined as inhibitory concentrations (IC50) and (IC90) that cause 50% and 90% inhibition of parasite growth as determined by measuring [^3H]-hypoxanthine incorporation.

[3] = system: Plasmodium falciparum strain D6; assay: [3H]-hypoxanthine growth inhibition assay; assay type: cell-based; details: mean (SD), 96 h exposure, chloroquine-sensitive strain; for IC50: read-out: IC50 D6; for IC90: read-out: IC90 D6
Experimental: as §1, §2, §3

MRSA = assay: Minimum Bactericidal Concentration (MBC) assay (CAMHB); assay type: cell-based, methicillin-resistant S. aureus; details: Table 4, all ΔΔ- enantiomers
Experimental: (§4) Further MIC assays and Minimum Bactericidal Concentration (MBC) assays were conducted against Gram-positive and Gram-negative bacterial strains using symmetric and non-symmetric, inert and labile complexes.

S. aureus ATCC 25923 = assay: MIC determination, broth micro-dilution (CAMHB); assay type: cell-based, Staphylococcus aureus; details: Table 4; CAMHB; all ΔΔ- enantiomers
How it was run: (§5)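 Ruthenium complexes two-fold serially diluted in cation-adjusted Mueller Hinton broth, final range 0.25–128 […], with equal volume of bacterial suspension; duplicate determinations, gentamicin as positive control. Plates incubated 37° C for 24 h; MIC by standard micro-dilution.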

P. aeruginosa ATCC 27853 = assay: MIC determination, broth micro-dilution (CAMHB); assay type: cell-based, Pseudomonas aeruginosa; details: Table 4; CAMHB; all ΔΔ- enantiomers
How it was run: as §5

E. coli = assay: Minimum Bactericidal Concentration (MBC) assay (CAMHB); assay type: cell-based, Escherichia coli; details: Table 4, all ΔΔ- enantiomers
Experimental: as §4

P. aeruginosa = assay: as above; assay type: cell-based, Pseudomonas aeruginosa; details: Table 4, all ΔΔ- enantiomers
Experimental: as §4

[4] = system: MRSA (a wild clinical strain from the JCU culture collection); assay: MIC determination, broth micro-dilution (CAMHB); assay type: cell-based, methicillin-resistant S. aureus; details: Table 4; CAMHB; all ΔΔ- enantiomers
How it was run: as §5

E. coli ATCC 25922 = assay: MIC determination, broth micro-dilution (CAMHB); assay type: cell-based, Escherichia coli; details: Table 4; CAMHB; all ΔΔ- enantiomers
How it was run: as §5

S. aureus = assay: Minimum Bactericidal Concentration (MBC) assay (CAMHB); assay type: cell-based, Staphylococcus aureus; details: Table 4, all ΔΔ- enantiomers
Experimental: as §4

Molecule	logP [1]	IC50 [2] [nM]	IC90 [2] [nM]	IC50 [3] [nM]	IC90 [3] [nM]	MBC MRSA (MRSA) [µg/mL]	MIC S. aureus (S. aureus ATCC 25923)	MIC P. aeruginosa (P. aeruginosa ATCC 27853)	MBC E. coli (E. coli) [µg/mL]	MBC P. aeruginosa (P. aeruginosa) [µg/mL]	MIC MRSA [4]	MIC E. coli (E. coli ATCC 25922)	MBC S. aureus (S. aureus) [µg/mL]
Cc1ccnc(-c2cc(CCCCCCCCCCCCCCCCc3ccnc(-c4cc(C)ccn4)c3)ccn2)c1.[Cl-].[Cl-].[Cl-].[Cl-].[Ru+2].[Ru+2].c1cnc2c(c1)ccc1cccnc12.c1cnc2c(c1)ccc1cccnc12.c1cnc2c(c1)ccc1cccnc12.c1cnc2c(c1)ccc1cccnc12 [Rubb16, [{Ru(phen)2}2(μ-bb16)]Cl4]	−1.9	289	444	226	413	2	1	8	2	8	1	2	1
[{Ru(phen)2}2(μ-bb12)] [Rubb12]	−2.7	739	1400	733	1250	2	1	16	2	32	1	2	2
